Assay results taken from patent US10071086B2, “1H-pyrazolo[3,4-b]pyridines and therapeutic uses thereof” (Samumed, LLC, priority 2012, dated 2018).

Tested on: Wnt pathway
Experiment: Wnt activity reporter assay (SP5 promoter-luciferase in SW480 cells)
Assay type: cell-based
Conditions: Homo sapiens, SP5 promoter firefly luciferase reporter, read-out: Wnt inhibition
Source text: The above synthesized compounds were screened using the assay procedure for Wnt activity described below.
Reporter cell lines can be generated by stably transducing cells of cancer cell lines (e.g., colon cancer) with a lentiviral construct that include a wnt-responsive promoter driving expression of the firefly luciferase gene.
Lentiviral constructs can be made in which the SP5 promoter, a promoter having eight TCF/LEF binding sites derived from the SP5 promoter, is linked upstream of the firefly luciferase gene. The lentiviral constructs can also include a hygromycin resistance gene as a selectable marker. The SP5 promoter construct can be used to transduce SW480 cells, a colon cancer cell line having a mutated APC gene that generates a truncated APC protein, leading to de-regulated accumulation of β-catenin.
Cultured SW480 cells bearing a reporter construct can be distributed at approximately 10,000 cells per well into 96 well or 384 well plates. Compounds from a small molecule compound library can then be added to the wells in half-log dilutions using a ten micromolar top concentration. A series of control wells for each cell type receive only buffer and compound solvent. Twenty-four to forty hours after the addition of compound, reporter activity for luciferase can be assayed, for example, by addition of the BrightGlo luminescence reagent (Promega) and the Victor3 plate reader (Perkin Elmer). Readings can be normalized to DMSO only treated cells, and normalized activities can then be used in the IC50 calculations.

Row | SMILES | IC50 [nM]
1 | O=C(Nc1cncc(-c2cnc3[nH]nc(-c4nc5c(-c6cccc(F)c6)cncc5[nH]4)c3c2)c1)C(F)(F)F [Compound 1, 2,2,2-Trifluoro-N-(5-(3-(7-(3-fluorophenyl)-3H-imidazo[4,5-c]pyridin-2-yl)-1H-pyrazolo[3,4-b]pyridin-5-yl)pyridin-3-yl)acetamide] | 6
2 | CN1CCN(c2cncc(-c3cnc4[nH]nc(-c5nc6c(-c7cccc(F)c7)cncc6[nH]5)c4c3)c2)CC1 [Compound 4, 3-(7-(3-Fluorophenyl)-3H-imidazo[4,5-c]pyridin-2-yl)-5-(5-(4-methylpiperazin-1-yl)pyridin-3-yl)-1H-pyrazolo[3,4-b]pyridine] | 333
3 | CN(C)CCNc1cncc(-c2cnc3[nH]nc(-c4nc5c(-c6cccc(F)c6)cncc5[nH]4)c3c2)c1 [Compound 6, N1-(5-(3-(7-(3-Fluorophenyl)-3H-imidazo[4,5-c]pyridin-2-yl)-1H-pyrazolo[3,4-b]pyridin-5-yl)pyridin-3-yl)-N2,N2-dimethylethane-1,2-diamine] | 550
4 | CCNC(=O)c1cncc2[nH]c(-c3n[nH]c4ncc(-c5cccnc5)cc34)nc12 [Compound 8, N-Ethyl-2-(5-(pyridin-3-yl)-1H-pyrazolo[3,4-b]pyridin-3-yl)-3H-imidazo[4,5-c]pyridine-7-carboxamide] | 8250
5 | Fc1cc(-c2cncc3[nH]c(-c4n[nH]c5ncc(-c6cccnc6)cc45)nc23)cc(N2CCOCC2)c1 [Compound 13, 4-(3-Fluoro-5-(2-(5-(pyridin-3-yl)-1H-pyrazolo[3,4-b]pyridin-3-yl)-3H-imidazo[4,5-c]pyridin-7-yl)phenyl)morpholine] | 172
6 | CC(C)N1CCN(c2cc(F)cc(-c3cncc4[nH]c(-c5n[nH]c6ncc(-c7cccnc7)cc56)nc34)c2)CC1 [Compound 15, 3-(7-(3-Fluoro-5-(4-isopropylpiperazin-1-yl)phenyl)-3H-imidazo[4,5-c]pyridin-2-yl)-5-(pyridin-3-yl)-1H-pyrazolo[3,4-b]pyridine] | 326
7 | Fc1cc(CN2CCCC2)cc(-c2cncc3[nH]c(-c4n[nH]c5ncc(-c6cccnc6)cc45)nc23)c1 [Compound 16, 3-(7-(3-Fluoro-5-(pyrrolidin-1-ylmethyl)phenyl)-3H-imidazo[4,5-c]pyridin-2-yl)-5-(pyridin-3-yl)-1H-pyrazolo[3,4-b]pyridine] | 384
8 | CC(C)N(Cc1cc(F)cc(-c2cncc3[nH]c(-c4n[nH]c5ncc(-c6cccnc6)cc45)nc23)c1)C(C)C [Compound 17, N-(3-Fluoro-5-(2-(5-(pyridin-3-yl)-1H-pyrazolo[3,4-b]pyridin-3-yl)-3H-imidazo[4,5-c]pyridin-7-yl)benzyl)-N-isopropylpropan-2-amine] | 550
9 | CC1CCN(c2cc(F)cc(-c3cncc4[nH]c(-c5n[nH]c6ncc(-c7cccnc7)cc56)nc34)c2)CC1 [Compound 19, 3-(7-(3-Fluoro-5-(4-methylpiperidin-1-yl)phenyl)-3H-imidazo[4,5-c]pyridin-2-yl)-5-(pyridin-3-yl)-1H-pyrazolo[3,4-b]pyridine] | 499
10 | CN(C)Cc1cncc(-c2cnc3[nH]nc(-c4nc5c(-c6cncc(F)c6)cncc5[nH]4)c3c2)c1 [Compound 20, 1-(5-(3-(7-(5-Fluoropyridin-3-yl)-3H-imidazo[4,5-c]pyridin-2-yl)-1H-pyrazolo[3,4-b]pyridin-5-yl)pyridin-3-yl)-N,N-dimethylmethanamine] | 10000
11 | Fc1cc(-c2cncc3[nH]c(-c4n[nH]c5ncc(-c6cccnc6)cc45)nc23)cc(N2CCNCC2)c1 [Compound 21, 3-(7-(3-Fluoro-5-(piperazin-1-yl)phenyl)-3H-imidazo[4,5-c]pyridin-2-yl)-5-(pyridin-3-yl)-1H-pyrazolo[3,4-b]pyridine] | 167
12 | CN(C)Cc1cncc(-c2cnc3[nH]nc(-c4nc5c(-c6cc(F)cc(CNS(C)(=O)=O)c6)cncc5[nH]4)c3c2)c1 [Compound 22, N-(3-(2-(5-(5-((Dimethylamino)methyl)pyridin-3-yl)-1H-pyrazolo[3,4-b]pyridin-3-yl)-3H-imidazo[4,5-c]pyridin-7-yl)-5-fluorobenzyl)methanesulfonamide] | 32
13 | Fc1cncc(-c2cncc3[nH]c(-c4n[nH]c5ncc(-c6cccnc6)cc45)nc23)c1 [Compound 23, 3-(7-(5-Fluoropyridin-3-yl)-3H-imidazo[4,5-c]pyridin-2-yl)-5-(pyridin-3-yl)-1H-pyrazolo[3,4-b]pyridine] | 10000
14 | CN(C)Cc1cncc(-c2cnc3[nH]nc(-c4nc5c(-c6cc(F)cc(N7CCOCC7)c6)cncc5[nH]4)c3c2)c1 [Compound 24, 1-(5-(3-(7-(3-Fluoro-5-morpholinophenyl)-3H-imidazo[4,5-c]pyridin-2-yl)-1H-pyrazolo[3,4-b]pyridin-5-yl)pyridin-3-yl)-N,N-dimethylmethanamine] | 21
15 | CN(C)Cc1cncc(-c2cnc3[nH]nc(-c4nc5c(-c6cncc(C(F)(F)F)c6)cncc5[nH]4)c3c2)c1 [Compound 25, N,N-Dimethyl-1-(5-(3-(7-(5-(trifluoromethyl)pyridin-3-yl)-3H-imidazo[4,5-c]pyridin-2-yl)-1H-pyrazolo[3,4-b]pyridin-5-yl)pyridin-3-yl)methanamine] | 10000
16 | Fc1cccc(-c2cncc3[nH]c(-c4n[nH]c5ncc(-c6cncc(CN7CCCC7)c6)cc45)nc23)c1 [Compound 27, 3-(7-(3-Fluorophenyl)-3H-imidazo[4,5-c]pyridin-2-yl)-5-(5-(pyrrolidin-1-ylmethyl)pyridin-3-yl)-1H-pyrazolo[3,4-b]pyridine] | 1780
17 | Fc1cccc(-c2cncc3[nH]c(-c4n[nH]c5ncc(-c6cncc(CN7CCCCC7)c6)cc45)nc23)c1 [Compound 28, 3-(7-(3-Fluorophenyl)-3H-imidazo[4,5-c]pyridin-2-yl)-5-(5-(piperidin-1-ylmethyl)pyridin-3-yl)-1H-pyrazolo[3,4-b]pyridine] | 720
18 | O=C(Nc1cncc(-c2cnc3[nH]nc(-c4nc5c(-c6cccc(F)c6)cncc5[nH]4)c3c2)c1)C1CC1 [Compound 114, N-(5-(3-(7-(3-Fluorophenyl)-3H-imidazo[4,5-c]pyridin-2-yl)-1H-pyrazolo[3,4-b]pyridin-5-yl)pyridin-3-yl)cyclopropanecarboxamide] | 11
19 | O=C(Cc1ccccc1)Nc1cncc(-c2cnc3[nH]nc(-c4nc5c(-c6ccc(F)cc6)cncc5[nH]4)c3c2)c1 [Compound 128, N-(5-(3-(7-(4-Fluorophenyl)-3H-imidazo[4,5-c]pyridin-2-yl)-1H-pyrazolo[3,4-b]pyridin-5-yl)pyridin-3-yl)-2-phenylacetamide] | 90
20 | Fc1ccc(-c2cncc3[nH]c(-c4n[nH]c5ncc(-c6cncc(CNCC7CCCC7)c6)cc45)nc23)cc1 [Compound 142, 1-Cyclopentyl-N-((5-(3-(7-(4-fluorophenyl)-3H-imidazo[4,5-c]pyridin-2-yl)-1H-pyrazolo[3,4-b]pyridin-5-yl)pyridin-3-yl)methyl)methanamine] | 645
21 | CCCC(=O)Nc1cncc(-c2cnc3[nH]nc(-c4nc5c(-c6ccccc6F)cncc5[nH]4)c3c2)c1 [Compound 158, N-(5-(3-(7-(2-Fluorophenyl)-3H-imidazo[4,5-c]pyridin-2-yl)-1H-pyrazolo[3,4-b]pyridin-5-yl)pyridin-3-yl)butyramide] | 8
22 | CN(C)Cc1cncc(-c2cnc3[nH]nc(-c4nc5c(-c6cccnc6)cncc5[nH]4)c3c2)c1 [Compound 176, N,N-Dimethyl-1-(5-(3-(7-(pyridin-3-yl)-3H-imidazo[4,5-c]pyridin-2-yl)-1H-pyrazolo[3,4-b]pyridin-5-yl)pyridin-3-yl)methanamine] | 1550
23 | c1cncc(-c2cncc3[nH]c(-c4n[nH]c5ncc(-c6cncc(CN7CCCCC7)c6)cc45)nc23)c1 [Compound 178, 5-(5-(Piperidin-1-ylmethyl)pyridin-3-yl)-3-(7-(pyridin-3-yl)-3H-imidazo[4,5-c]pyridin-2-yl)-1H-pyrazolo[3,4-b]pyridine] | 392
24 | CC(C)(C)CC(=O)Nc1cncc(-c2cnc3[nH]nc(-c4nc5c(-c6cccnc6)cncc5[nH]4)c3c2)c1 [Compound 179, 3,3-Dimethyl-N-(5-(3-(7-(pyridin-3-yl)-3H-imidazo[4,5-c]pyridin-2-yl)-1H-pyrazolo[3,4-b]pyridin-5-yl)pyridin-3-yl)butanamide] | 1450
25 | O=C(Nc1cncc(-c2cnc3[nH]nc(-c4nc5c(-c6cccnc6)cncc5[nH]4)c3c2)c1)C1CCCCC1 [Compound 185, N-(5-(3-(7-(Pyridin-3-yl)-3H-imidazo[4,5-c]pyridin-2-yl)-1H-pyrazolo[3,4-b]pyridin-5-yl)pyridin-3-yl)cyclohexanecarboxamide] | 1320
26 | Cc1ccncc1-c1cnc2[nH]nc(-c3nc4c(-c5ccncc5)cncc4[nH]3)c2c1 [Compound 192, 5-(4-Methylpyridin-3-yl)-3-(7-(pyridin-4-yl)-3H-imidazo[4,5-c]pyridin-2-yl)-1H-pyrazolo[3,4-b]pyridine] | 1050
27 | CC(C)Nc1cncc(-c2cnc3[nH]nc(-c4nc5c(-c6ccncc6)cncc5[nH]4)c3c2)c1 [Compound 198, N-Isopropyl-5-(3-(7-(pyridin-4-yl)-3H-imidazo[4,5-c]pyridin-2-yl)-1H-pyrazolo[3,4-b]pyridin-5-yl)pyridin-3-amine] | 1130
28 | c1ccc(CNCc2cncc(-c3cnc4[nH]nc(-c5nc6c(-c7ccncc7)cncc6[nH]5)c4c3)c2)cc1 [Compound 209, N-Benzyl-1-(5-(3-(7-(pyridin-4-yl)-3H-imidazo[4,5-c]pyridin-2-yl)-1H-pyrazolo[3,4-b]pyridin-5-yl)pyridin-3-yl)methanamine] | 9800
